Reference: patent US9957251B2 (Takeda Pharmaceutical Company Limited, priority 2014, dated 2018)

Columns and labels:
[1] = target: T1, CDK19 (CDC2L6/CycC) (Homo sapiens, UniProt Q9BWU1); assay: CDK19 inhibitory activity (TR-FRET, Kinase Tracer-236 displacement); assay type: binding; settings: 1 μM of the test compound; for inhibition at 1 µM: read-out: Percent inhibition of CDK19 activity (%)
T1 construct: purchased Carna Biosciences
Procedure: (§1) The compound of the present invention was evaluated for its CDK8 inhibitory activity and CDK19 inhibitory activity by the following method. […] The primary diluted solution was dispensed in the amount of 2 μL/well to a 384-well plate, and then, a mixed solution of Eu^3+ Cryptate conjugated mouse monoclonal antibody anti-glutathione S-transferase (Cisbio) diluted 267-fold with an assay buffer and 60 nM Kinase Tracer-236 (Life technologies) was added thereto at 2 μL/well. After the addition, each kinase solution (84 ng/mL CDK8/CycC (Carna Biosciences) diluted with an assay buffer used for CDK8 inhibitory activity measurement, and 87 ng/mL CDC2L6/CycC (Carna Biosciences) diluted with an assay buffer used for CDK19 inhibitory activity measurement) was further added thereto at 2 μL/well. After the addition, the plate was left standing at room temperature for 1 hour, and then, the fluorescence intensity (excitation wavelength 320 nm, fluorescence wavelength 615 nm, 665 nm, delay time 50 μsec) was measured using an EnVision plate reader (PerkinElmer).

[2] = target: T2, CDK8/CycC (Homo sapiens, UniProt P49336); assay: CDK8 inhibitory activity (TR-FRET, Kinase Tracer-236 displacement); assay type: binding; settings: 1 μM of the test compound; for inhibition at 1 µM: read-out: Percent inhibition of CDK8 activity (%)
T2 construct: purchased Carna Biosciences
Procedure: as §1

[3] = system: human multiple myeloma RPMI8226 cells; assay: Inhibitory activity against human multiple myeloma RPMI8226 cell growth (CellTiter-Glo); assay type: cell-based; settings: 1 μM of the test compound, cultured for 8 days; for inhibition at 1 µM: Homo sapiens, RPMI-8226, 192 h, read-out: Percent inhibition of RPMI8226 cell growth (%)
Procedure: The compound of the present invention was evaluated for its inhibitory activity against human multiple myeloma RPMI8226 cell growth by the following method.
A suspension of human multiple myeloma RPMI8226 cells (purchased from the Health Protection Agency) was inoculated at 40 μL (300 cells/well) to a 384-well plate and cultured at 37° C. for 1 day in a 5% CO2 incubator. After the culture, each test compound solution was added thereto at a test concentration of 1 μM using TECAN D300, and the cells were further cultured for 8 days. After the culture, CellTiter-Glo™ Luminescent Cell Viability Assay reagent (Promega) was added at 40 μL/well to a 384-well plate, and the amount of luminescence was measured using a luminometer. Inhibitory activity against human multiple myeloma RPMI8226 cell growth (percent inhibition (%)) of the test compound was calculated according to the following formula, which is based on the hypothesis that the amount of residual ATP reflects the number of cells. In this formula, 100% control represents the amount of luminescence from a well with only 0.1% DMSO added. Percent inhibition (%)=(1−(amount of luminescence of the test compound)÷(100% control))×100

T2 sequence (P49336 whole entry): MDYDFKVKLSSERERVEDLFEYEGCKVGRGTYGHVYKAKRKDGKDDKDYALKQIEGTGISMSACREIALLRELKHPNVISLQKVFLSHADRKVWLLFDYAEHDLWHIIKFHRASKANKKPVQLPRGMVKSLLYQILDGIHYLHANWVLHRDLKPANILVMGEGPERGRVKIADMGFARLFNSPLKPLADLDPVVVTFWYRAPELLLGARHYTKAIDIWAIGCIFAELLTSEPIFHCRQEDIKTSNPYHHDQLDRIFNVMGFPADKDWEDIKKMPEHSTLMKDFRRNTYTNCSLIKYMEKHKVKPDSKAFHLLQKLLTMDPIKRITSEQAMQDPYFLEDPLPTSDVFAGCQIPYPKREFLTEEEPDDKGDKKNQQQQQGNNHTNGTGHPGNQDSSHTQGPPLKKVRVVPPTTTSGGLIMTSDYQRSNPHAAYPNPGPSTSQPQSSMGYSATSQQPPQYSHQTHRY
T2 sequence (P24863 whole entry partner): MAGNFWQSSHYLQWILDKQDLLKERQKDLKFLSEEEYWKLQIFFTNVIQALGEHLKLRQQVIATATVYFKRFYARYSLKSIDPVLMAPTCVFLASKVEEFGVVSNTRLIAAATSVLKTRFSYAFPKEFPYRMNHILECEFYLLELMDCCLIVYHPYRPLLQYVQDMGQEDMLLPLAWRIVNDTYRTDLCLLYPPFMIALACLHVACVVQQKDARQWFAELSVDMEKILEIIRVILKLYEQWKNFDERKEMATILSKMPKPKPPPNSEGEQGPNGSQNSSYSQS
T1 sequence (Q9BWU1 whole entry): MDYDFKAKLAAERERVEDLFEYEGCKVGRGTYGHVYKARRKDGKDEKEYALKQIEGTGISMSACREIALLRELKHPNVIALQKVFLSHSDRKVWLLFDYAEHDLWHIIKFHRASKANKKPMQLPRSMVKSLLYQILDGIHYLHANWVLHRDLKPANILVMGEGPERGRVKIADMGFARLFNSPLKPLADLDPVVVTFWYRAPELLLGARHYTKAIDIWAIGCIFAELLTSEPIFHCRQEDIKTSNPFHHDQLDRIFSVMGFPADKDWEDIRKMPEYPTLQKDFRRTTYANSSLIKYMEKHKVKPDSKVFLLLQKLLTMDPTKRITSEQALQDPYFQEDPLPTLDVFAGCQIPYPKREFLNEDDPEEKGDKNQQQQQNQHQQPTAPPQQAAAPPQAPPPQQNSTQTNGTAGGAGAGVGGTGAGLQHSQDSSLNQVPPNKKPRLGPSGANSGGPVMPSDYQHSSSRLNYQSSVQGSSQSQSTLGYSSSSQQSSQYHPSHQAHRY
T1 sequence (P24863 whole entry partner): as the sequence (P24863 whole entry partner) above

SMILES	Percent inhibition of CDK19 activity (%) ([1]; 1 µM)	Percent inhibition of CDK8 activity (%) ([2]; 1 µM)	inhibition at 1 µM [1] [%]	inhibition at 1 µM [2] [%]	Percent inhibition of RPMI8226 cell growth (%) ([3]; 1 µM)	inhibition at 1 µM [3] [%]
O=C(/C=C/c1cnccc1-c1cnn(C2CC2)c1)Nc1ccc(CN2CC(F)(F)C2)cc1 [Example 374, (2E)-3-(4-(1-Cyclopropyl-1H-pyrazol-4-yl)pyridin-3-yl)-N-(4-((3,3-difluoroazetidin-1-yl)methyl)phenyl)acrylamide diphosphate]	100	100	–	–	69	–
Cn1cc(-c2ccncc2/C=C/C(=O)Nc2ccc(CC#N)cc2)cn1 [Example 284, (2E)-N-(4-(cyanomethyl)phenyl)-3-(4-(1-methyl-1H-pyrazol-4-yl)pyridin-3-yl)acrylamide]	–	–	95	92	–	57
Cn1cc(-c2ccncc2/C=C/C(=O)Nc2ccc3c(ccn3C)c2)cn1 [Example 175, (2E)-N-(1-Methyl-1H-indol-5-yl)-3-(4-(1-methyl-1H-pyrazol-4-yl)pyridin-3-yl)acrylamide]	–	–	99	98	–	55
O=C(/C=C/c1cnccc1-c1cnn(C2CC2)c1)Nc1ccc2c(c1)CN(C(=O)C(F)(F)F)CC2 [Example 248, (2E)-3-(4-(1-Cyclopropyl-1H-pyrazol-4-yl)pyridin-3-yl)-N-(2-(trifluoroacetyl)-1,2,3,4-tetrahydroisoquinolin-7-yl)acrylamide]	–	–	98	98	–	57
COC1CN(Cc2ccc(NC(=O)/C=C/c3cncc(F)c3-c3cnn(C4CC4)c3)c(F)c2)C1 [Example 343, (2E)-3-(4-(1-Cyclopropyl-1H-pyrazol-4-yl)-5-fluoropyridin-3-yl)-N-(2-fluoro-4-((3-methoxyazetidin-1-yl)methyl)phenyl)acrylamide]	–	–	96	103	–	63
Cn1cc(-c2ccncc2/C=C/C(=O)Nc2ccc(CNC3CC3)cc2)cn1 [Example 49, (2E)-N-(4-((cyclopropylamino)methyl)phenyl)-3-(4-(1-methyl-1H-pyrazol-4-yl)pyridin-3-yl)acrylamide]	–	–	96	95	–	56
Cn1cc(-c2ccncc2/C=C/C(=O)Nc2ccc3cc[nH]c3c2)cn1 [Example 155, (2E)-N-(1H-indol-6-yl)-3-(4-(1-methyl-1H-pyrazol-4-yl)pyridin-3-yl)acrylamide]	–	–	93	98	–	54
Cn1cc(-c2ccncc2/C=C/C(=O)Nc2ccc(CNCC(F)(F)C(F)(F)F)cc2)cn1 [Example 73, (2E)-3-(4-(1-methyl-1H-pyrazol-4-yl)pyridin-3-yl)-N-(4-(((2,2,3,3,3-pentafluoropropyl)amino)methyl)phenyl)acrylamide]	–	–	99	101	–	56
CC(C)(O)Cc1ccc(NC(=O)/C=C/c2cncc(F)c2-c2cnn(C3CC3)c2)c(F)c1 [Example 332, (2E)-3-(4-(1-Cyclopropyl-1H-pyrazol-4-yl)-5-fluoropyridin-3-yl)-N-(2-fluoro-4-(2-hydroxy-2-methylpropyl)phenyl)acrylamide]	–	–	99	102	–	60
Cn1cc(-c2ccncc2/C=C/C(=O)Nc2ccc(N3CCOCC3)c(Cl)c2)cn1 [Example 159, (2E)-N-(3-chloro-4-(morpholin-4-yl)phenyl)-3-(4-(1-methyl-1H-pyrazol-4-yl)pyridin-3-yl)acrylamide]	–	–	100	102	–	60
Cn1cc(-c2ccncc2/C=C/C(=O)Nc2ccc3ccncc3c2)cn1 [Example 156, (2E)-N-(isoquinolin-7-yl)-3-(4-(1-methyl-1H-pyrazol-4-yl)pyridin-3-yl)acrylamide]	–	–	94	94	–	55
CC(C)(F)Cc1ccc(NC(=O)/C=C/c2cncc(F)c2-c2cnn(C3CC3)c2)cc1 [Example 348, (2E)-3-(4-(1-Cyclopropyl-1H-pyrazol-4-yl)-5-fluoropyridin-3-yl)-N-(4-(2-fluoro-2-methylpropyl)phenyl)acrylamide]	–	–	101	99	–	62
COC1CN(Cc2ccc(NC(=O)/C=C/c3cncc(F)c3-c3cnn(C4CC4)c3)cc2)C1 [Example 345, (2E)-3-(4-(1-Cyclopropyl-1H-pyrazol-4-yl)-5-fluoropyridin-3-yl)-N-(4-((3-methoxyazetidin-1-yl)methyl)phenyl)acrylamide]	–	–	100	101	–	63
O=C(/C=C/c1cnccc1-c1cnn(C2CC2)c1)Nc1ccc2c(c1)CCN(CC(F)(F)F)C2 [Example 316, (2E)-3-(4-(1-Cyclopropyl-1H-pyrazol-4-yl)pyridin-3-yl)-N-(2-(2,2,2-trifluoroethyl)-1,2,3,4-tetrahydroisoquinolin-6-yl)acrylamide]	–	–	98	103	–	49
Cn1cc(-c2ccncc2/C=C/C(=O)Nc2ccc3c(c2)CCN3)cn1 [Example 280, (2E)-N-(2,3-dihydro-1H-indol-5-yl)-3-(4-(1-methyl-1H-pyrazol-4-yl)pyridin-3-yl)acrylamide]	–	–	96	97	–	58

More lines, main results first:

Percent inhibition of CDK19 activity (%) ([1]; 1 µM)	Percent inhibition of CDK8 activity (%) ([2]; 1 µM)	inhibition at 1 µM [1] [%]	inhibition at 1 µM [2] [%]	SMILES	Percent inhibition of RPMI8226 cell growth (%) ([3]; 1 µM)	inhibition at 1 µM [3] [%]
–	–	97	103	COCCn1cnc2ccc(-c3ccncc3/C=C/C(=O)Nc3ccc(CN4CCOCC4)cc3)cc21 [Example 295, (2E)-3-(4-(1-(2-methoxyethyl)-1H-benzimidazol-6-yl)pyridin-3-yl)-N-(4-(morpholin-4-ylmethyl)phenyl)acrylamide]	–	62
–	–	100	101	O=C(/C=C/c1cnccc1-c1ccc2nccn2c1)Nc1ccc(CN2CCOCC2)cc1 [Example 222, (2E)-3-(4-(imidazo[1,2-a]pyridin-6-yl)pyridin-3-yl)-N-(4-(morpholin-4-ylmethyl)phenyl)acrylamide]	–	52
–	–	97	96	O=C(/C=C/c1cnccc1-c1ccc2[nH]ncc2c1)Nc1ccc(CN2CCOCC2)cc1 [Example 242, (2E)-3-(4-(1H-indazol-5-yl)pyridin-3-yl)-N-(4-(morpholin-4-ylmethyl)phenyl)acrylamide]	–	55
–	–	99	99	Cn1cc(-c2ccncc2/C=C/C(=O)Nc2ccc(CN3CC(F)(F)C3)cc2)cn1 [Example 69, (2E)-N-(4-((3,3-difluoroazetidin-1-yl)methyl)phenyl)-3-(4-(1-methyl-1H-pyrazol-4-yl)pyridin-3-yl)acrylamide]	–	48
–	–	99	101	COC1CN(Cc2ccc(NC(=O)/C=C/c3cnccc3-c3cnn(C4CC4)c3)cc2)C1 [Example 321, (2E)-3-(4-(1-cyclopropyl-1H-pyrazol-4-yl)pyridin-3-yl)-N-(4-((3-methoxyazetidin-1-yl)methyl)phenyl)acrylamide]	–	59
–	–	100	97	COc1ccsc1-c1ccncc1/C=C/C(=O)Nc1ccc(CN2CCOCC2)cc1 [Example 100, (2E)-3-(4-(3-methoxy-2-thienyl)pyridin-3-yl)-N-(4-(morpholin-4-ylmethyl)phenyl)acrylamide]	–	52
–	–	101	87	Cn1cnc2ccc(-c3c(F)cncc3/C=C/C(=O)Nc3ccc(CN4CC(F)(F)C4)cc3)cc21 [Example 358, (2E)-N-(4-((3,3-Difluoroazetidin-1-yl)methyl)phenyl)-3-(5-fluoro-4-(1-methyl-1H-benzimidazol-6-yl)pyridin-3-yl)acrylamide]	–	67
–	–	101	97	Cn1cc(-c2ccncc2/C=C/C(=O)Nc2ccc(CN3CCOC(C)(C)C3)cc2)cn1 [Example 37, (2E)-N-(4-((2,2-Dimethylmorpholin-4-yl)methyl)phenyl)-3-(4-(1-methyl-1H-pyrazol-4-yl)pyridin-3-yl)acrylamide]	–	61
